This is an account of results in patent US9193710B2, “Benzodiazepinones as modulators of metabotropic glutamate receptor functions and neurological uses thereof” (SANFORD-BURNHAM MEDICAL RESEARCH INSTITUTE, priority 2011, dated 2015).

“Also recorded” adds a separate entry of the source. Like-named read-outs stand apart in the source and are kept apart here. Bounds are passed on as bounds.

Format in all cases: cell-based
The test system of assay [1] is human neural stem cells (hNSCs). Description: Neuronal differentiation of human neural stem cells. Set-up: key to Inhibition by LY-354740 / Inhibition by DCG-IV: I—Inhibition. To be noted: for EC50: Homo sapiens, Neural stem cell; for Inhibition by DCG-IV: inhibition of the compound-induced neurogenesis by the mGluR2/3 agonist DCG-IV; for Inhibition by LY-354740: inhibition of the compound-induced neurogenesis by the group II mGlu agonist LY-354740. The protocol:
FIG. 1 is a dose-response curve showing the effect of Compound 1 (8-bromo-4-(pyridazin-4-yl)-1H-benzo[b][1,4]diazepin-2(3H)-one) and DCG-IV, an mGluR2/3 agonist, alone and in combination on neuronal differentiation of cultured human neural stem cells (hNSCs). When run independently, each compound was tested in a concentration response curve ranging from 0.01 μM to 31.6 μM. Data are presented as the percentage of the neuronal positive control, with basal media values subtracted. […] In combination, the compounds were combined at equal concentrations at each point (for example, the first point in the combined curve consisted of a test of 0.01 μM Compound 1 and 0.01 μM DCG-IV).
Human neural stem cells (hNSCs) were isolated and grown in monolayer culture, plated, treated with varying concentrations of 8-bromo-4-(pyridazin-4-yl)-1H-benzo[b][1,4]diazepin-2(3H)-one (Compound 1), and stained with TUJ-1 antibody, as described in U.S. Patent Application Publication No. US2007/0015138. Mitogen-free test media with a positive control for neuronal differentiation was used along with basal media without growth factors as a negative control. […] The data are presented as a percent of neuronal positive control.
The same protocol used for exemplary Compound 1 (FIG. 1 and Example 55) was used to test these compounds. LY-354740 (eglumegad) is an agonist of the group II mGlu receptors.

A further assay concerns the target T1, mGluR3 (Homo sapiens, UniProt Q14832).
T1 construct: expressed in transfected cells; transient Galpha16 co-transfection
Kind of assay: Functional assay (FLIPR), mGluR3. To be noted: class symbols: IC50 or inhibition at fixed concentration; CHO cells over-expressing mGluR3, calcium signal. The protocol:
(§1) The compounds are further characterized through functional assays known in the art for studying potential mGluR agents. As a non-limiting example, the assay may be conducted as follows. Chinese hamster ovary (CHO) cells stably over-expressing either mGluR2 or mGluR3 are seeded into multiwell plates and transiently transfected overnight at 37° C. with a cDNA construct expressing G-protein coupled to intracellular calcium such as Gα16. The following day cells are washed with Hank's balanced salt solution containing calcium and magnesium. Cells are loaded for 1-2 hours with a calcium dye such as Fluo4 at 37° C.
The test compound may be added prior to or concurrent with the loading of the cells with Fluo4. Pre-incubation with compounds can vary from 5 minutes up 2 hours. Pre-incubation is done if the assay is testing for antagonists, positive allosteric modulators or negative allosteric modulators. No pre-incubation is done if the assay is testing for agonist activity. For testing antagonists or negative allosteric modulators an EC80 of the endogenous ligand, glutamate, is used. For testing positive allosteric modulators an EC20 of the endogenous ligand, glutamate, is used. Cells plates are loaded into a real-time fluorescence reader such as the FLIPR Tetra or the Flexstation 3. A base line is recorded for 15 seconds before cells are stimulated with either glutamate or other agonists. The real-time fluorescent signal is recorded for another 2 minutes. The peak of the fluorescent signal is determined. Data are either expressed as percent of the glutamate response in terms of a single determination or concentration curves are fitted with a four parameter logistic equation giving EC50 or IC50 values.

For another assay, the target named is T2, mGluR2 (Homo sapiens, UniProt Q14416).
T2 construct: expressed in transfected cells; transient Galpha16 co-transfection
Kind of assay: Functional assay (FLIPR), mGluR2. To be noted: class symbols: IC50 or inhibition at fixed concentration; CHO cells over-expressing mGluR2, calcium signal. The protocol:
as §1
The test compound may be added prior to or concurrent with the loading of the cells with Fluo4. Pre-incubation with compounds can vary from 5 minutes up 2 hours. […] Cells plates are loaded into a real-time fluorescence reader such as the FLIPR Tetra or the Flexstation 3. A base line is recorded for 15 seconds before cells are stimulated with either glutamate or other agonists. The real-time fluorescent signal is recorded for another 2 minutes. The peak of the fluorescent signal is determined. Data are either expressed as percent of the glutamate response in terms of a single determination or concentration curves are fitted with a four parameter logistic equation giving EC50 or IC50 values.

Setting [2] is: neuronal differentiation of hNSCs, TUJ-1 staining, read-out: Neurogenesis EC50.

T1 sequence (Q14832 23-879): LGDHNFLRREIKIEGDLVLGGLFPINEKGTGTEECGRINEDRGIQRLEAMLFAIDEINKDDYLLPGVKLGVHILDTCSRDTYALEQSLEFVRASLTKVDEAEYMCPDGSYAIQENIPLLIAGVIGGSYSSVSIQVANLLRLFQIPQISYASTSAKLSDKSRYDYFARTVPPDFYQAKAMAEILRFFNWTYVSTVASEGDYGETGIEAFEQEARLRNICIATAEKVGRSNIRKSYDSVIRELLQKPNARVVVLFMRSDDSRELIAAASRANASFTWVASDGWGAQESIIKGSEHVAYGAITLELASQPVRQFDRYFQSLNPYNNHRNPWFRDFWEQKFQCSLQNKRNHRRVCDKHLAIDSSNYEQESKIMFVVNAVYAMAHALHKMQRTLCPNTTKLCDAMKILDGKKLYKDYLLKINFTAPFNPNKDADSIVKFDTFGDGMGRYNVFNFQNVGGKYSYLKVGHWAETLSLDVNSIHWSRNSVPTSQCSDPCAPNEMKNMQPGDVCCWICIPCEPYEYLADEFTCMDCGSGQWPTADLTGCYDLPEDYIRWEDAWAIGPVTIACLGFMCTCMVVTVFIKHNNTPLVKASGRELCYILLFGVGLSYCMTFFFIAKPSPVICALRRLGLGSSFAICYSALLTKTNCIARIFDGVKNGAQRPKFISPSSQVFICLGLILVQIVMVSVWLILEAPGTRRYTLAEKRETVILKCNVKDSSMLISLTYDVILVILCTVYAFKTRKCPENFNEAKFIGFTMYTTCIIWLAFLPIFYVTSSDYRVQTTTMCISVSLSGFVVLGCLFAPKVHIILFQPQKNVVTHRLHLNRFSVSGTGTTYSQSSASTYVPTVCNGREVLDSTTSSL
T2 sequence (Q14416 19-872): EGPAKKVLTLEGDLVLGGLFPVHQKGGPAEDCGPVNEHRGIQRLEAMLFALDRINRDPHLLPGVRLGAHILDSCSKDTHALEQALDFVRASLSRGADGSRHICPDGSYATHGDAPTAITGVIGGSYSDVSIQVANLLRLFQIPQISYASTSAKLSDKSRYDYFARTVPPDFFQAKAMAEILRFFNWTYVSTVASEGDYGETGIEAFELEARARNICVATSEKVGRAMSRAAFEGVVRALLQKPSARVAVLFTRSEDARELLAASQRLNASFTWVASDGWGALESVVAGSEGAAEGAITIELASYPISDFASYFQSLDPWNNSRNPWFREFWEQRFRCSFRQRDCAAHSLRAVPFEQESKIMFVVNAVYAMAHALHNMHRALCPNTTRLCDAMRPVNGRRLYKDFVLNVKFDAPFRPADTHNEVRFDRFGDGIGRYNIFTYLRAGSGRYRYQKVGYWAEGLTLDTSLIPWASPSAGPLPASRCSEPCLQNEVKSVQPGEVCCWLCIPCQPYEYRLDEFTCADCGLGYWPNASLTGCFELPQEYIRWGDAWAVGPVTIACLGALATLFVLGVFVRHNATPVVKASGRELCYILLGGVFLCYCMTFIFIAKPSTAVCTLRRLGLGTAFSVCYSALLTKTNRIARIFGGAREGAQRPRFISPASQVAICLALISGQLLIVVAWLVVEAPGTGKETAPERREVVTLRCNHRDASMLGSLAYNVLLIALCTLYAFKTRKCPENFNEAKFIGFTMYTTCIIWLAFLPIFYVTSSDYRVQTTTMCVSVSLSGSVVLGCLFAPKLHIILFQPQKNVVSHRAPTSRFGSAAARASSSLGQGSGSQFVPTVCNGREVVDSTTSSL

With `O=C1CC(c2ccnnc2)=Nc2ccc(Br)cc2N1` [Compound 1, 8-bromo-4-(pyridazin-4-yl)-1H-benzo[b][1,4]diazepin-2(3H)-one], the “effect on neuronal differentiation (neurogenesis), tested alone” value in assay [1] (FIG. 1, 0.01 μM to 31.6 μM) is listed as “promoted neuronal differentiation in a concentration dependent manner”. In addition, the “neurogenesis in combination with DCG-IV” value in assay [1] (FIG. 1, Compound 1 and DCG-IV at equal concentrations (1:1 ratio) at each point) is given as “no noted neurogenesis; also recorded: did not induce neurogenesis”. The EC50 (usually the concentration giving half of the maximal effect) is 2.53 µM in assay [1] (FIG. 1, 0.01 μM to 31.6 μM, percentage of neuronal positive control, basal media subtracted, read-out: EC50, neuronal differentiation dose-response curve) and 1 to 5 µM in assay [1] (setting [2]). In addition, in assay [1], the “Inhibition by DCG-IV” value was “I”.

As for `O=C1CC(c2ccnnc2)=Nc2ccc(C(F)(F)F)cc2N1` [Compound 2, 8-trifluoromethyl-4-(pyridazin-4-yl)-1H-benzo[b][1,4]diazepin-2(3H)-one], in assay [1] (setting [2]), the EC50 fell in the range of 1 to 5 µM. Moreover, the “Inhibition by LY-354740” value in assay [1] was “I”.

As to `O=C1CC(c2ccnnc2)=Nc2ccc(I)cc2N1` [Compound 3, 8-iodo-4-(pyridazin-4-yl)-1H-benzo[b][1,4]diazepin-2(3H)-one], the EC50 in assay [1] (setting [2]) lay in the range of 1 to 5 µM. In assay [1], the “Inhibition by LY-354740” value is listed as “I”.

For `COC(=O)c1ccc2c(c1)NC(=O)CC(c1ccnnc1)=N2` [Compound 4, Methyl 2-oxo-4-(pyridazin-4-yl)-2,3-dihydro-1H-benzo[b][1,4]diazepine-8-carboxylate], the EC50 in assay [1] (setting [2]) was 1 to 5 µM.

Turning to `O=C1CC(c2ccnnc2)=Nc2ccc(Cl)cc2N1` [Compound 5, 8-chloro-4-(pyridazin-4-yl)-1H-benzo[b][1,4]diazepin-2(3H)-one], in assay [1] (setting [2]), the EC50 is under 1 µM.

As to `O=C1CC(c2ccnnc2)=Nc2ccc(F)cc2N1` [Compound 6, 8-fluoro-4-(pyridazin-4-yl)-1H-benzo[b][1,4]diazepin-2(3H)-one], the EC50 in assay [1] (setting [2]) lay within 1 to 5 µM.

`O=C1CC(c2cncnc2)=Nc2ccc(Br)cc2N1` [Compound 7, 8-Bromo-4-(pyrimidin-3-yl)-1H-benzo[b][1,4]diazepin-2(3H)-one]: the EC50 in assay [1] (setting [2]) is over 5 µM.

`O=C1CC(c2cnccn2)=Nc2ccc(Br)cc2N1` [Compound 8, 8-Bromo-4-(pyrazin-2-yl)-1H-benzo[b][1,4]diazepin-2(3H)-one]: the EC50 in assay [1] (setting [2]) is over 5 µM.

On to `Cc1ccc(C2=Nc3ccc(Br)cc3NC(=O)C2)nn1` [Compound 9], for which, in assay [1] (setting [2]), the EC50 is 1 to 5 µM.

For the compound `O=C1CC(c2ccc(Cl)nn2)=Nc2ccc(Br)cc2N1` [Compound 10], in assay [1] (setting [2]), the EC50 was in the range of 1 to 5 µM.

As for `O=C1CC(c2ccnnc2)=Nc2ccc(C(=O)O)cc2N1` [Compound 12, 2-oxo-4-(pyridazin-4-yl)-2,3-dihydro-1H-benzo[b][1,4]diazepine-8-carboxylic acid], in assay [1] (setting [2]), the EC50 was under 1 µM. For the same compound, the “Inhibition by LY-354740” value in assay [1] is “I”.

For `Cc1cc2c(cc1C)NC(=O)CC(c1ccnnc1)=N2` [Compound 13, 7,8-Dimethyl-4-(pyridazin-4-yl)-1H-benzo[b][1,4]diazepin-2(3H)-one], the EC50 in assay [1] (setting [2]) was over 5 µM.

`O=C1CC(c2ccnnc2)=Nc2ccc(-c3cccs3)cc2N1` [Compound 15, 8-(Thiophen-2-yl)-4-(pyridazin-4-yl)-1H-benzo[b][1,4]diazepin-2(3H)-one]: the EC50 in assay [1] (setting [2]) lay within 1 to 5 µM. In assay [1], the “Inhibition by LY-354740” value is listed as “I” and the “Inhibition by DCG-IV” value is reported as “I”.

As for `O=C1CC(c2ccnnc2)=Nc2ccc(-c3ccccc3F)cc2N1` [Compound 16, 8-(2-Fluorophenyl)-4-(pyridazin-4-yl)-1H-benzo[b][1,4]diazepin-2(3H)-one], the EC50 in assay [1] (setting [2]) is over 5 µM.

On to `COc1ccc(-c2ccc3c(c2)NC(=O)CC(c2ccnnc2)=N3)cc1OC` [Compound 17, 8-(3,4-Dimethoxyphenyl)-4-(pyridazin-4-yl)-1H-benzo[b][1,4]diazepin-2(3H)-one], for which, in assay [1] (setting [2]), the EC50 was over 5 µM.

As for `O=C1CC(c2ccc(O)nn2)=Nc2ccc(Br)cc2N1` [Compound 33, 8-Bromo-4-(6-hydroxypyridazin-3-yl)-1H-benzo[b][1,4]diazepin-2(3H)-one], on mGluR3, the “mGluR3 FLIPR” value is listed as “B (B=inhibition at 101.1M>50%)”.

Turning to `O=C1CC(c2ccc3[nH]c(=O)sc3c2)=Nc2ccc(Br)cc2N1` [Compound 35, 6-(8-bromo-2-oxo-2,3-dihydro-1H-benzo[b][1,4]diazepin-4-yl)benzo[d]thiazol-2(3H)-one], the “mGluR3 FLIPR” value on mGluR3 is reported as “C (C=inhibition at 101.1M<50%)”.

Regarding `O=C1CC(c2ccc3[nH]c(=O)sc3c2)=Nc2ccc(C#Cc3ccccc3F)cc2N1` [Compound 36, 6-(8-((2-fluorophenyl)ethynyl)-2-oxo-2,3-dihydro-1H-benzo[b][1,4]diazepin-4-yl)benzo[d]thiazol-2(3H)-one], at mGluR3, the “mGluR3 FLIPR” value is “C (C=inhibition at 101.1M<50%)”.

Regarding `O=C1CC(c2cccc(Br)c2)=Nc2ccc(NC(=O)OCc3ccccc3)cc2N1` [Compound 82, benzyl(4-(3-bromophenyl)-2-oxo-2,3-dihydro-1H-benzo[b][1,4]diazepin-8-yl)carbamate], the “mGluR2 FLIPR” value on mGluR2 is on record as “A (A=IC50<1 μM)”.

For `N[C@H](C(=O)O)C1[C@@H](C(=O)O)[C@@H]1C(=O)O` (some centres unmarked) [DCG-IV, reference compound], the “effect on neuronal differentiation (neurogenesis), tested alone” value in assay [1] (FIG. 1, 0.01 μM to 31.6 μM) is reported as “no effect; also recorded: did not induce neurogenesis”.
